From patent publication EP0377127B1, “Use of Myricetin-3-O-beta-D glucuronide as medicament” (Plantamed Arzneimittel GmbH, priority 1989, dated 1990)
Like-named read-outs stand apart in the source and are kept apart here.

Legend:
[1] = test system: Carrageenin-induzierte Rattenpfotenödem; assay: Carrageenin-induced rat paw oedema (acute inflammation model); assay type: in vivo, Ratte
Experimental: Zur Prüfung der entzündungshemmenden Wirkung dieser Substanz wird das Modell des Carrageenin-induzierten Rattenpfotenödems herangezogen, ein allgemein anerkanntes Modell zur Ermittlung anhand einer akuten Entzündung. Die entzündungshemmende Wirkung von vakuumgetrockneten und lyophilisierten Extrakten ist in Abb. 1 wiedergegeben. Bei der Anwendung von vakuumgetrocknetem Blattextrakt von Epilobium angustifolium wurde eine Dosis von 72 mg/kg Ratte, für sprühgetrockneten Blattextrakt eine Dosis von 136,47 mg/kg Ratte und für lyophilisierten Blattextrakt eine Dosis von 16,4 mg/kg Ratte eingesetzt. Das Ausmaß der entzündungswirkenden von vakuumgetrockneten und lyophilisierten Extrakten der in Abbildung 1 aufgezeigten Konzentrationen entspricht ca. 1 bis 2 mg Indometacin/kg Ratte.
Der Einfluß auf das Carrageenin-induzierte Rattenpfotenödem geht aus den Kurven in den Abbildungen 2 und 3 hervor. Abbildung 2 stellt unterschiedliche Dosen von HIMAK einander gegenüber, Abb. 3 dient dem Vergleich von HIMAK einer bestimmten Dosis mit einem wässrigen Auszug von Epilobium und Indometacin. Der Darstellung des Einflusses der erfindungsgemäßen Substanz auf die Prostaglandin-Biosynthese am pharmakologischen Modell nach ISAKSON, modifiziert nach JUAN und SAMETZ am perfundierten Kaninchenohr sowie mittels Radioimmunoassay (RIA) dienen die Abbildungen 4 und 5.

[2] = test system: Magenschleimhaut; assay: Preliminary examination of gastric mucosa damage after peroral dosing; assay type: in vivo; conditions: 1 mg/kg, preliminary examinations
Description: Es ist gesicherte Erkenntnis, daß Cyclooxygenase-Hemmer, also Hemmer der Biosynthese von Prostaglandinen, wie etwa Indo, die Magenschleimhaut schädigen können. […] Im Ergebnis liefern diese Untersuchungen einen Hinweis auf die wesentlich günstiger zu beurteilende Frage der Toxizität von HIMAK.

[3] = test system: PG-Biosynthese; assay: Prostaglandin biosynthesis in the perfused rabbit ear (labelled arachidonic acid, metabolites separated by TLC; RIA); assay type: cell-based, Kaninchen; conditions: for inhibition at 1 µg/mL: Oryctolagus cuniculus, read-out: hemmen die Biosynthese von PGI₂ und PGE₂
Description: Methode: Perfundiertes Kaninchenohr mit C-Arachidonsäure, Vormarkierung und Messung der radioaktiven Metalboliten mittels Auftrennung durch DC. • 2.

| SMILES | Dosisbereich, der das Carrageenin-Pfotenödem ähnlich stark reduziert wie 1 mg/kg Indomethacin (p.o.) ([1]; compared with 1 mg/kg Indomethacin p.o.) | Hemmung der experimentellen akuten Entzündung (Rattenpfotenödem mit Carrageenin) (in words) ([1]; dose-dependent) | Wirksamkeit im Vergleich mit der Referenzsubstanz Indo auf Gewichtsbasis (in words) ([1]; first experiments, weight basis) | so wirksam wie Indo, auf geschätzter Molekulargewichtsbasis ([1]; potency relative to Indo, estimated molecular weight basis) [mal] | so wirksam wie Indo, auf Gewichtsbasis ([1]; potency relative to Indo, weight basis) [mal] | Bildung kleiner Erosionen in der Magenschleimhaut [2] | inhibition at 1 µg/mL ([3]; 1 »g/ml (Endkonzentration) Indo, ca. 1 »g/ml HIMAK, perfused rabbit ear) [%] | Hemmung der Biosynthese von Prostaglandinen (in words) ([3]; dose-dependent) | Hemmung der PG-Biosynthese im Vergleich mit Indo (in words) ([3]; weight basis, similar concentration as Indo (Abb. 4)) | inhibition at 1 µg/mL [3] [%] |
| --- | --- | --- | --- | --- | --- | --- | --- | --- | --- | --- |
| O=C(O)[C@H]1O[C@@H](Oc2c(-c3cc(O)c(O)c(O)c3)oc3cc(O)cc(O)c3c2=O)[C@H](O)[C@@H](O)[C@@H]1O [HIMAK, Myricetin-3-0-β-D-glucuronid] | 40 - 200 »g/kg KG | deutlich hemmen | wesentlich wirksamer | ~5 | ≥ 10 | nicht der Fall | > 80 | deutlich hemmen | in etwa gleichem Ausmaß gehemmt |  |
| COc1ccc2c(c1)c(CC(=O)O)c(C)n2C(=O)c1ccc(Cl)cc1 [Indo, Indometacin, reference compound] |  |  |  |  |  | Bildung kleiner Erosionen in der Magenschleimhaut |  |  |  | > 80 |
